Reference: US20060100154A1, “Long-acting gonadotropin-releasing hormone analogs and methods of use thereof” (YEDA RESEARCH AND DEVELOPMENT CO, priority 2005, published 2006)
Square brackets hold non-standard residues; d marks the D form. d(pGlu) = O=C1CC[C@H](C(=O)O)N1

Key:
[1] = tested on: primary cultures of rat pituitary cells; assay: Effect of GnRH antagonist on LH secretion stimulated by [D-Lys6(Emo)]GnRH; format: cell-based; conditions: [D-Lys6(Emo)]GnRH 20 pM, antagonist 100 nM, 4 h; FIG. 5
Experimental: To determine the effect of a GnRH antagonist ([D-pyr^1, D-Phe^2, D-Trp^3,6]GnRH) on the induction of LH secretion from primary cultures of rat pituitary cells stimulated by [D-Lys^6(Emo)]GnRH, cells were incubated for 4 h at 37° C. with [D-Lys^6(Emo)]GnRH (20 pM) in the absence or presence of the GnRH antagonist (100 nM). The media were collected and LH concentration was determined by RIA (FIG. 5). Results are the mean±SEM of LH concentrations obtained from two experiments (4 wells/experimental group, each).

[2] = Relative hydrophobicity by elution from RP-18 HPLC column; format: physicochemical; conditions: percent of buffer B in which the analog was eluted from RP-18 column
Text: All chemicals and reagents were of analytical grade. Rink amide resin, 9-fluorenylmethoxycarbonyl (Fmoc) protected amino acid derivatives, and all the reagents for solid-phase peptide synthesis were purchased from Novabiochem (Läufelfingen, Switzerland). Side-chain protecting groups employed for peptide synthesis were as follows: Arg, 2,2,4,6,7-pentamethyldihydrobenzofuran-5-sulfonyl (Pbf); His, trityl (Trt); D-Lys, 4-methyltrityl (Mtt) or tert-butyloxycarbonyl (Boc); Trp, tert-butyloxycarbonyl (Boc); Ser and Tyr, tert-butyl (tBu). Reversed phase HPLC was performed on a Spectra-Physics SP-8800 liquid chromatography system equipped with an Applied Biosystems 757 variable wavelength absorbance detector. HPLC prepacked columns were: Lichrocart, containing Lichrosorb RP-18 (250×10 mm; 7 μm, Merck, Darmstadt, Germany) for semi-preparative purification and Lichrospher 100 RP-18 (250×4 mm; 5 μm, Merck, Darmstadt, Germany) and wide pore butyl C4 (250×4.6 mm; 5 μm, J. T. Baker Inc., Phillipsburg, N.J.) for analytical purposes. HPLC purification and analysis were achieved by using a linear gradient established between 0.1% trifluoroacetic acid […] in water as buffer A and 0.1% TFA in 75% aqueous acetonitrile as buffer B. Eluent composition was 10-100% B over 40 mlin, using RP-18 column, and a gradient of 0-100% B over 40 min employing a wide pore butyl (C4) column. N-(2noro-1,4-naphtoqumonyl)-β-alanine (NQ), 1,6,8-Trihydroxy-3-carboxylic acid-anthraquinone (Emo) and 2-hydroxymethyl-anthraquinone hemiglutarate (AntrQ) were synthesized as described^14,24,27 (for chemical structure see FIG. 1).

[3] = biological target: T1, rat pituitary GnRH receptors (Rattus norvegicus, UniProt P30969); assay: Displacement binding assay with 125I[D-Lys6]GnRH on rat pituitary membranes; conditions: vs [D-Lys6]GnRH
T1 construct: from tissue; host or cells: rat pituitary membranes (Wistar-derived rats)
T1 sequence (P30969 1-327): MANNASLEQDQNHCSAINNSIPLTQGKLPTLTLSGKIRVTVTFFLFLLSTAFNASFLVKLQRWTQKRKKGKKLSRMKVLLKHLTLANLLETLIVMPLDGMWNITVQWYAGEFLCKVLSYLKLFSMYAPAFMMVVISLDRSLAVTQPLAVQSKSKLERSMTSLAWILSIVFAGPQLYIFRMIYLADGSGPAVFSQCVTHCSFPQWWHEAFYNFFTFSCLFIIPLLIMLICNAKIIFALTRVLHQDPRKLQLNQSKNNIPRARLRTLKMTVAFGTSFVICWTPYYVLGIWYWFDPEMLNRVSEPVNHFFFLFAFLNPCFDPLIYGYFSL
Experimental: Specific binding was calculated by subtracting the non-specific binding from the maximal binding, determined in the absence of any competing peptide. Results are the mean of two experiments carried out in triplicates. SEM values are omitted for clarity (FIG. 3).

[4] = tested on: primary cultures of rat pituitary cells; assay: LH releasing potency in primary rat pituitary cell cultures; format: cell-based; conditions: 4 h, 37° C.; compared to [D-Lys6]GnRH; FIG. 4
Experimental: The media were then collected and LH concentration were analyzed by double-antibody radioimmunoassay (RIA)^32 using kits kindly supplied by the National Institute of Arthritis, Metabolism and Digestive Diseases (NIMDD). Results (FIG. 4) are expressed in terms of LH-RP-3 rat reference preparation, and are the mean±SEM of LH concentration of two experiments (4 wells/experimental group, each). The basal release after 4 h was 9.41±2 ng/mL.

LH release = assay: In vivo LH release after intraperitoneal administration; parameters: species or system rat; conditions: six h after administration; 0.04 vs 0.4 nmol/rat i.p.
Experimental: The ability of [D-Lys^6(Emo)]GnRH to bind GnRH receptors and promote LH release in vitro, prompted the evaluation of its in vivo activity.
Blood samples were withdrawn by cardiac puncture under light ether anesthesia at the indicated time intervals, and serum LH levels were determined by RIA as described above (FIG. 6). Results are the mean±SEM of LH concentrations in the serum of five animals/experimental group. The LH concentration was determined using three different dilutions of each serum sample. Similar results were obtained in two other experiments.

[5] = tested on: testes and prostate glands; assay: Long-term treatment of male rats: weight of testes and prostate glands; format: in vivo; conditions: 0.1 nmol/rat daily for 7 days vs parent peptide 1 nmol/rat; FIG. 7
Experimental: Control rats were injected daily with 0.5 mL of PBS. Rats were sacrificed 24 h after the last injection, and the testes and prostate glands were immediately dissected and weighed (FIG. 7). Results are the meant±SEM of the weight of the organs (six animals/experimental group).

[6] = biological target: T2, human serum albumin (HSA) (Homo sapiens, UniProt P02768); assay: Binding to HSA; format: in vitro ADME; conditions: 37° C., 3 h; FIG. 8
T2 construct: purchased Sigma, St. Louis, Mo
T2 sequence (P02768 25-609): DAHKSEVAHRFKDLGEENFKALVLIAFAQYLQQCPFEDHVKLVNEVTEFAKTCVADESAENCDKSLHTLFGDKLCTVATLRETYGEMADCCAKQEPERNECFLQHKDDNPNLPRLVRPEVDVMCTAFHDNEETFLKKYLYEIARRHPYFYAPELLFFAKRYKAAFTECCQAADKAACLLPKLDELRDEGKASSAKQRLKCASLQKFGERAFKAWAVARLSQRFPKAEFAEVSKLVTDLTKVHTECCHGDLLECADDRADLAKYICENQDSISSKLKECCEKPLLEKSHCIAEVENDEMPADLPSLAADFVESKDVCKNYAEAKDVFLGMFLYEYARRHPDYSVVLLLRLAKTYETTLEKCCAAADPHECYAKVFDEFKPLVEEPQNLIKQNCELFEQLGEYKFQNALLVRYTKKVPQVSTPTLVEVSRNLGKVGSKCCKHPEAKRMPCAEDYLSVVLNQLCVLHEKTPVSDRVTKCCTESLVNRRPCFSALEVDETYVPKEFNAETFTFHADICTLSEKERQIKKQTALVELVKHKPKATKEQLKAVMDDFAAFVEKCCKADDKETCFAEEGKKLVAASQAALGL
Experimental: The concentration of HSA in the solution was determined using a molar extinction coefficient of 39,000 M^−1 cm^−1 at 277.5 nm^33. The unbound compound was then separated from the HSA solution by applying it on to a Centricon® concentrator column (Amicon Inc., Beverly, Mass.) with a band pass membrane of […] according to the manufacture's protocol. The HSA bound compound (˜20 μL) was then precipitated by adding it to acetonitrile (1 mL). The supernatant was kept and the precipitate was dissolved in PBS (100 μL) and re-precipitated. The combined supernatants were evaporated, the residue was dissolved in water containing 0.1% TFA (buffer A) and analyzed by HPLC to determine the amount of the tested compounds. Results represent the mean of two experiments (FIG. 8).

αT3-1 cells [7] = assay: In vitro toxicity / phototoxicity (XTT cell survival); format: cell-based, mouse
Experimental: αT3-1 cells (50,000 cells/well) were plated in 96-well tissue culture plates in 0.1 mL of complete medium. After 24 h the medium was changed and cells were incubated in the same medium (without serum and phenol red) containing different concentrations of the tested compounds for 4 h at 37° C. The cells were then washed (×3) with PBS and illuminated (λmax=400 nm) in PBS. The fluence rate was 14.3 mW cm^−2 with a total fluence of 17 J cm^−2. Following illumination the media were replaced by complete medium and the plates were incubated for additional 24 h at 37° C. Cell survival was determined using the XTT (Biological Industries, Beit-Haemek, Israel) kit following the manufacture's protocol. Values are expressed as % survival.

αT3-1 cells [8] = assay: DNA fragmentation assay; format: cell-based, mouse; conditions: 10 μM, FIG. 10
Experimental: FIG. 10. DNA cleavage in cells treated with [D-Lys^6(Emo)]GnRH and emodic acid. αT3-1 cells were incubated; in darkness with 10 μM of the tested compounds, washed and illuminated. After 24 h of incubation DNA was isolated and analyzed by gel electrophoresis. Lanes 1, 3 and 5 represent DNA of cells treated with 1% DMSO in PBS, emodic acid or [D-Lys^6(Emo)]GnRH, respectively, followed by illumination. Lane 2, 4 and 6 represent cells treated with 1% DMSO in PBS, emodic acid, or [D-Lys^6(Emo)]GnRH, respectively, in darkness.
αT3-1 cells (×10^6/dish) were incubated in phenol red and serum free complete medium (37° C., 5% CO2) with the tested compounds for 5 h in the dark. Cells were then washed with PBS (×3) and illuminated or remained in darkness as described earlier. The media were then replaced by complete medium and cells were incubated for additional 24 h. DNA was then isolated, using Wizard® genomic DNA purification kit (Promega, Madison, Wis.) following the company's protocol and analyzed by gel electrophoresis (0.4% cross linked agarose, ethidium bromide staining).

| Molecule | inhibition of [D-Lys6(Emo)]GnRH-induced LH secretion [1] | Hydrophobicity (% B) [2] [% B] | reduction of affinity to GnRH receptors compared to the parent peptide [3] | LH releasing activity in vitro [4] | LH levels relative to group treated with [D-Lys6]GnRH (LH release) | decrease in testicular and ventral prostate gland weights [5] | binding to HSA [6] | phototoxicity to αT3-1 cells (αT3-1 cells [7]; 10 μM, illuminated, FIG. 9) | toxicity to αT3-1 cells in the dark (αT3-1 cells [7]; incubated in the dark) | DNA fragmentation in the dark (αT3-1 cells [8]; darkness) | DNA fragmentation upon illumination (αT3-1 cells [8]; illuminated) |
| --- | --- | --- | --- | --- | --- | --- | --- | --- | --- | --- | --- |
| [D-pGlu^1, D-Phe^2, D-Trp^3,6]GnRH ([d(pGlu)][dF][dW]SY[dW]LRPG-NH2; SMILES CC(C)C[C@H](NC(=O)[C@@H](Cc1c[nH]c2ccccc12)NC(=O)[C@H](Cc1ccc(O)cc1)NC(=O)[C@H](CO)NC(=O)[C@@H](Cc1c[nH]c2ccccc12)NC(=O)[C@@H](Cc1ccccc1)NC(=O)[C@H]1CCC(=O)N1)C(=O)N[C@@H](CCCNC(=N)N)C(=O)N1CCC[C@H]1C(=O)NCC(N)=O) [GnRH antagonist] | completely inhibited |  |  |  |  |  |  |  |  |  |  |
| CC(C)C[C@H](NC(=O)[C@@H](CCCCNC(=O)c1cc(O)c2c(c1)C(=O)c1cc(O)cc(O)c1C2=O)NC(=O)[C@H](Cc1ccc(O)cc1)NC(=O)[C@H](CO)NC(=O)[C@H](Cc1c[nH]c2ccccc12)NC(=O)[C@H](Cc1c[nH]cn1)NC(=O)[C@@H]1CCC(=O)N1)C(=O)N[C@@H](CCCNC(=N)N)C(=O)N1CCC[C@H]1C(=O)NCC(N)=O [[D-Lys^6(Emo)]GnRH, [D-Lys^6(1,3,8-trihydroxy-6-carboxy-anthraquinone)]GnRH] |  | 66 | about 3 fold | highest bioactivity | about 6 folds | greater decrease | binds significantly to HSA | did not exhibit any toxicity | did not show any toxicity | did not cause any DNA fragmentation | but not [D-Lys^6(Emo)]GnRH (lane 5) induced DNA fragmentation |
